Biological target: T1, recombinant human 11 β-HSD1 (Homo sapiens, UniProt P28845)
T1 construct: made in house; host or cells: E. coli
Assay: 11 β-HSD1 SPA Assay (Scintillation Proximity Assay)
Type: biochemical
How it was run: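 Scintillation proximity read-out of cortisol formed from 40 nM [3H]cortisone by purified recombinant human enzyme (30-100 nM, E. coli) with 1 mM NADPH, pH7.4, 2 hours at room temperature; beads with cortisol antibody and glycyrrhetinic acid stop the reaction, read next day. IC50 derived from inhibition normalised to background and maximal wells.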

T1 sequence (P28845 whole entry): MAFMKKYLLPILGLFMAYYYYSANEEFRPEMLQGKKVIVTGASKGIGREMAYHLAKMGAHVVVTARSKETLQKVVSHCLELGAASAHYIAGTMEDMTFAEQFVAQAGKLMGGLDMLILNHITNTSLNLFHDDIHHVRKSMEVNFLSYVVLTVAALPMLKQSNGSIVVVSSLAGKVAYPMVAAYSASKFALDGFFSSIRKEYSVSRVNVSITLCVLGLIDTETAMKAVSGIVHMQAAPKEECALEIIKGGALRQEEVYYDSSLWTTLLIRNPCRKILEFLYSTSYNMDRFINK

`CC(C)NC(=O)c1ccc(N2[C@@H]3CC[C@H]2C[C@@H](NC(=O)C(C)(C)Oc2ccc(Cl)cc2Cl)C3)nc1` [Example 54, 6-[3-endo-({2-[(2,4-dichlorophenyl)oxy]-2-methylpropanoyl}amino)-8-azabicyclo[3.2.1]oct-8-yl]-N-(1-methylethyl)pyridine-3-carboxamide] and `C[C@@H](NC(=O)c1ccc(N2C3CCC2CC(NC(=O)C(C)(C)Oc2ccc(Cl)cc2Cl)C3)nc1)C(F)(F)F` (stereo partly drawn) [Example 373, 6-(3-endo-{[2-(2,4-dichlorophenoxy)-2-methylpropanoyl]amino}-8-azabicyclo[3.2.1]oct-8-yl)-N-[(2R)-1,1,1-trifluoropropan-2-yl]pyridine-3-carboxamide] cannot be ordered by IC50: < 200 nM for the first, < 200 nM for the second.

`CC(C)(Oc1ccc(Cl)c(Cl)c1)C(=O)N[C@H]1C[C@H]2CC[C@@H](C1)N2c1ccc(S(C)(=O)=O)cc1` [Example 206, 2-[(3,4-dichlorophenyl)oxy]-2-methyl-N-{8-[4-(methylsulfonyl)phenyl]-8-azabicyclo[3.2.1]oct-3-endo-yl}propanamide] and `CC(C)(Oc1cc(Cl)c(Cl)cc1Cl)C(=O)N[C@H]1C[C@H]2CC[C@@H](C1)N2c1ccc(S(C)(=O)=O)cc1` [Example 199, 2-methyl-N-{8-[4-(methylsulfonyl)phenyl]-8-azabicyclo[3.2.1]oct-3-endo-yl}-2-[(2,4,5-trichlorophenyl)oxy]propanamide] cannot be ordered by IC50: < 2000 nM for the first, < 200 nM for the second.

`CC(C)(Oc1ccc(F)c(F)c1)C(=O)N[C@H]1C[C@H]2CC[C@@H](C1)N2c1ccc(C(=O)NCC(F)(F)F)cn1` [Example 78, 6-[3-endo-({2-[(3,4-difluorophenyl)oxy]-2-methylpropanoyl}amino)-8-azabicyclo[3.2.1]oct-8-yl]-N-(2,2,2-trifluoroethyl)pyridine-3-carboxamide] and `CC(C)(Oc1ccc(Cl)cc1)C(=O)N[C@H]1C[C@H]2CC[C@@H](C1)N2c1ccc(C(=O)NCC(F)(F)F)cn1` [Example 27, 6-[3-endo-({2-[(4-chlorophenyl)oxy]-2-methylpropanoyl}amino)-8-azabicyclo[3.2.1]oct-8-yl]-N-(2,2,2-trifluoroethyl)pyridine-3-carboxamide] cannot be ordered by IC50: < 200 nM for the first, < 200 nM for the second.

`CC(C)(Oc1ncc(Cl)cc1Cl)C(=O)N[C@H]1C[C@H]2CC[C@@H](C1)N2c1ncc(C(=O)NCC(F)(F)F)cc1F` [Example 161, 6-[3-endo-({2-[(3,5-dichloropyridin-2-yl)oxy]-2-methylpropanoyl}amino)-8-azabicyclo[3.2.1]oct-8-yl]-5-fluoro-N-(2,2,2-trifluoroethyl)pyridine-3-carboxamide] and `CC(C)(Oc1ccc(Cl)cc1Cl)C(=O)N[C@H]1C[C@H]2CC[C@@H](C1)N2c1ncc(C(=O)NCC(F)(F)F)cc1Cl` [Example 131, 5-chloro-6-[3-endo-({2-[(2,4-dichlorophenyl)oxy]-2-methylpropanoyl}amino)-8-azabicyclo[3.2.1]oct-8-yl]-N-(2,2,2-trifluoroethyl)pyridine-3-carboxamide] cannot be ordered by IC50: < 200 nM for the first, < 200 nM for the second.

`CC(C)(Oc1ccc(Cl)cc1Cl)C(=O)N[C@H]1C[C@H]2CC[C@@H](C1)N2c1ccc(C(=O)NCC(F)(F)F)cn1` [Example 65, 6-[3-endo-({2-[(2,4-dichlorophenyl)oxy]-2-methylpropanoyl}amino)-8-azabicyclo[3.2.1]oct-8-yl]-N-(2,2,2-trifluoroethyl)pyridine-3-carboxamide] and `CC(C)(Oc1ccc(Cl)cc1Cl)C(=O)N[C@H]1C[C@H]2CC[C@@H](C1)N2c1ccc(C(=O)NCC(F)(F)F)nc1` [Example 170, 5-[3-endo-({2-[(2,4-dichlorophenyl)oxy]-2-methylpropanoyl}amino)-8-azabicyclo[3.2.1]oct-8-yl]-N-(2,2,2-trifluoroethyl)pyridine-2-carboxamide] cannot be ordered by IC50: < 200 nM for the first, < 200 nM for the second.

`CC(C)(Oc1cc(C(C)(C)O)c(Cl)cc1Cl)C(=O)N[C@H]1C[C@H]2CC[C@@H](C1)N2c1ccc(C(=O)NCC(F)(F)F)cn1` [Example 475, 6-[3-endo-({2-[2,4-dichloro-5-(2-hydroxypropan-2-yl)phenoxy]-2-methylpropanoyl}amino)-8-azabicyclo[3.2.1]oct-8-yl]-N-(2,2,2-trifluoroethyl)pyridine-3-carboxamide] and `C[C@@H](NC(=O)c1ccc(N2C3CCC2CC(NC(=O)C(C)(C)Oc2cc(F)c(Cl)cc2Cl)C3)nc1)C(F)(F)F` (stereo partly drawn) [Example 450, 6-(3-endo-{[2-(2,4-dichloro-5-fluorophenoxy)-2-methylpropanoyl]amino}-8-azabicyclo[3.2.1]oct-8-yl)-N-[(2R)-1,1,1-trifluoropropan-2-yl]pyridine-3-carboxamide] cannot be ordered by IC50: < 200 nM for the first, < 200 nM for the second.

`C[C@@H](NC(=O)c1ccc(N2C3CCC2CC(NC(=O)C(C)(C)Oc2cc(F)c(F)cc2Cl)C3)nc1)C(F)(F)F` (stereo partly drawn) [Example 451, 6-(3-endo-{[2-(2-chloro-4,5-difluorophenoxy)-2-methylpropanoyl]amino}-8-azabicyclo[3.2.1]oct-8-yl)-N-[(2R)-1,1,1-trifluoropropan-2-yl]pyridine-3-carboxamide] and `CC(C)(Oc1cc(F)c(F)cc1Cl)C(=O)N[C@H]1C[C@H]2CC[C@@H](C1)N2c1ccc(C(N)=O)cn1` [Example 96, 6-[3-endo-({2-[(2-chloro-4,5-difluorophenyl)oxy]-2-methylpropanoyl}amino)-8-azabicyclo[3.2.1]oct-8-yl]pyridine-3-carboxamide] cannot be ordered by IC50: < 200 nM for the first, < 200 nM for the second.

`CC(C)(Oc1cc(F)c(F)cc1F)C(=O)N[C@H]1C[C@H]2CC[C@@H](C1)N2c1ccc(S(N)(=O)=O)cn1` [Example 216, N-{8-[5-(aminosulfonyl)pyridin-2-yl]-8-azabicyclo[3.2.1]oct-3-endo-yl}-2-methyl-2-[(2,4,5-trifluorophenyl)oxy]propanamide] and `CC(C)(Oc1c(F)cc(F)cc1F)C(=O)N[C@H]1C[C@H]2CC[C@@H](C1)N2c1ccc(S(N)(=O)=O)cn1` [Example 259, N-{8-[5-(aminosulfonyl)pyridin-2-yl]-8-azabicyclo[3.2.1]oct-3-endo-yl}-2-methyl-2-[(2,4,6-trifluorophenyl)oxy]propanamide] cannot be ordered by IC50: < 200 nM for the first, < 200 nM for the second.

`CC(C)(Oc1ccc(F)cc1F)C(=O)N[C@H]1C[C@H]2CC[C@@H](C1)N2c1ccc(C(=O)NC2CC2)cn1` [Example 35, N-cyclopropyl-6-[3-endo-({2-[(2,4-difluorophenyl)oxy]-2-methylpropanoyl}amino)-8-azabicyclo[3.2.1]oct-8-yl]pyridine-3-carboxamide] and `CC(C)(Oc1ccc(F)c(F)c1)C(=O)N[C@H]1C[C@H]2CC[C@@H](C1)N2c1ccc(C(=O)NC2CC2)cn1` [Example 33, N-cyclopropyl-6-[3-endo-({2-[(3,4-difluorophenyl)oxy]-2-methylpropanoyl}amino)-8-azabicyclo[3.2.1]oct-8-yl]pyridine-3-carboxamide] cannot be ordered by IC50: < 200 nM for the first, < 200 nM for the second.

`CC(C)(Oc1cc(F)c(F)cc1Cl)C(=O)N[C@H]1C[C@H]2CC[C@@H](C1)N2c1ccc(S(C)(=O)=O)cc1` [Example 225, 2-[(2-chloro-4,5-difluorophenyl)oxy]-2-methyl-N-{8-[4-(methylsulfonyl)phenyl]-8-azabicyclo[3.2.1]oct-3-endo-yl}propanamide] and `CC(C)(Oc1ccc(F)cc1S(C)(=O)=O)C(=O)N[C@H]1C[C@H]2CC[C@@H](C1)N2c1ccc(S(N)(=O)=O)cn1` [Example 298, N-{8-[5-(aminosulfonyl)pyridin-2-yl]-8-azabicyclo[3.2.1]oct-3-endo-yl}-2-{[4-fluoro-2-(methylsulfonyl)phenyl]oxy}-2-methylpropanamide] cannot be ordered by IC50: < 200 nM for the first, < 2000 nM for the second.

`CN(C)S(=O)(=O)c1cc(Cl)ccc1OC(C)(C)C(=O)N[C@H]1C[C@H]2CC[C@@H](C1)N2c1ccc(C(=O)NCC(F)(F)F)cn1` [Example 351, 6-[3-endo-({2-[4-chloro-2-(dimethylsulfamoyl)phenoxy]-2-methylpropanoyl}amino)-8-azabicyclo[3.2.1]oct-8-yl]-n-(2,2,2-trifluoroethyl)pyridine-3-carboxamide] and `C[C@H](NC(=O)c1ccc(N2C3CCC2CC(NC(=O)C(C)(C)Oc2ccc(Cl)cc2C(F)(F)F)C3)nc1)C(F)(F)F` (stereo partly drawn) [Example 416, 6-[3-endo-({2-[4-chloro-2-(trifluoromethyl)phenoxy]-2-methylpropanoyl}amino)-8-azabicyclo[3.2.1]oct-8-yl]-N-[(2S)-1,1,1-trifluoropropan-2-yl]pyridine-3-carboxamide] cannot be ordered by IC50: < 200 nM for the first, < 200 nM for the second.

`CC(C)(Oc1ccc(Cl)cc1Cl)C(=O)N[C@H]1C[C@H]2CC[C@@H](C1)N2c1ccc(C(=O)O)cn1` [Example 287, 6-[3-endo-({2-[(2,4-dichlorophenyl)oxy]-2-methylpropanoyl}amino)-8-azabicyclo[3.2.1]oct-8-yl]pyridine-3-carboxylic acid] and `CC(C)(Oc1ccc(F)c(C(F)(F)F)c1)C(=O)N[C@H]1C[C@H]2CC[C@@H](C1)N2c1ccc(C(N)=O)cn1` [Example 187, 6-{3-endo-[(2-{[4-fluoro-3-(trifluoromethyl)phenyl]oxy}-2-methylpropanoyl)amino]-8-azabicyclo[3.2.1]oct-8-yl}pyridine-3-carboxamide] cannot be ordered by IC50: < 200 nM for the first, < 200 nM for the second.

`CC(C)(Oc1ncc(C(F)(F)F)cc1Cl)C(=O)N[C@H]1C[C@H]2CC[C@@H](C1)N2c1ccc(C(=O)NCC(F)(F)F)cn1` [Example 151, 6-{3-endo-[(2-{[3-chloro-5-(trifluoromethyl)pyridin-2-yl]oxy}-2-methylpropanoyl)amino]-8-azabicyclo[3.2.1]oct-8-yl}-N-(2,2,2-trifluoroethyl)pyridine-3-carboxamide] and `CS(=O)(=O)Nc1ccc(N2[C@@H]3CC[C@H]2C[C@@H](NC(=O)C2(c4ccc(Cl)cc4)CC2)C3)nc1` [Example 60, 1-(4-chlorophenyl)-N-(8-{5-[(methylsulfonyl)amino]pyridin-2-yl}-8-azabicyclo[3.2.1]oct-3-endo-yl)cyclopropanecarboxamide] cannot be ordered by IC50: < 200 nM for the first, < 200 nM for the second.

— patent US8163771B2, “11 β-HSD1 modulators” (Exelixis, Inc., priority 2008, dated 2012)
